In patent US5908832A, “Peptide analog” (University of Houston - Clearlake, priority 1991, dated 1999):

Experiments:
morphine-dependent rats [1] = experiment: Naloxone-precipitated abstinence in morphine-dependent rats; assay type: in vivo, Sprague-Dawley rats
Description: Each rat was stereotaxically cannulated in the third ventricle under equithesin anesthesia. Cannula placements were subsequently confirmed by injection of methylene blue dye.
Drugs for third ventricle injection were dissolved in isotonic saline.
Following the rats way infusion period, rats were randomly divided into two treatment groups of seven rats each. Each rat received a third ventricular injection of either 600 ng daY8Ra in 30 μl saline or saline alone. Twenty-eight minutes after conclusion of the above injections, all rats were challenged by 10 μg naloxone HCl in 30 μl saline i.c.v.
Each rat was subsequently observed for 20 minutes, commencing with the onset of naloxone challenge.

morphine-dependent rats [2] = conditions: 2 μg i.c.v.; cited from earlier work
opiate-naive rats = conditions: 15 μg i.c.v.; cited from earlier work
specific NPFF receptors = conditions: spinal cord membranes; cited from earlier work
[3] = system: analgesic effects of morphine; conditions: in vivo; cited from earlier work

Structure (SMILES): CC(C)C[C@H](NC(=O)[C@@H](N)Cc1ccccc1)C(=O)N[C@@H](Cc1ccccc1)C(=O)N[C@@H](CCC(N)=O)C(=O)N1CCC[C@H]1C(=O)N[C@@H](CCC(N)=O)C(=O)N[C@@H](CCCNC(=N)N)C(=O)N[C@@H](Cc1ccccc1)C(N)=O [NPFF, Phe-Leu-Phe-Gln-Pro-Gln-Arg-Phe-amide]
- abstinence syndrome after naloxone challenge vs saline pretreatment (one-way ANOVA) (morphine-dependent rats [1]; 600 ng i.c.v. pretreatment, 10 μg naloxone HCl i.c.v., Example III): no significant differences among groups
- abstinence signs following the peptide injection itself (total frequency, M±SEM) (morphine-dependent rats [1]; morphine-dependent rats, 600 ng i.c.v., observed 14 minutes from onset of injection, before naloxone): 3.67±0.99
- precipitation of opiate abstinence syndrome (morphine-dependent rats [2]): precipitates opiate abstinence syndrome
- induction of quasi-morphine-abstinence syndrome (QMAS) (opiate-naive rats): induces a quasi-morphine-abstinence syndrome
- affinity of the 125I-Y8Fa binding site (specific NPFF receptors): high affinity
- effect on analgesic effects of morphine and certain endogenous opioid peptides [3]: potently antagonizes
